Measured values: PubChem BioAssay AID1259407 (Chemical Carcinogenesis Research Information System (CCRIS), 2018)
The source made the active and inactive calls. How the calls were made is not given here.

System: CCRIS mutagenicity, Ames/micronucleus/aberration tests
Test: CCRIS mutagenicity studies
[1] = Test System: AMES SALMONELLA TYPHIMURIUM, Strain/Indicator: TA98, Metabolic Activation: NONE, Method: STANDARD PLATE
[2] = Test System: AMES SALMONELLA TYPHIMURIUM, Strain/Indicator: TA100, Metabolic Activation: NONE, Method: STANDARD PLATE

With `O=[N+]([O-])c1ccc2ccc3ccccc3c2c1` the mutagenic call (Test System: AMES SALMONELLA TYPHIMURIUM, Strain/Indicator: TA98(1,8-DNP6), Metabolic Activation: NONE, Method: STANDARD PLATE) was “active; positive”, the mutagenic call (Test System: AMES SALMONELLA TYPHIMURIUM, Strain/Indicator: TA98(NR), Metabolic Activation: NONE, Method: STANDARD PLATE) was “active; positive” and the mutagenic call [1] was “active; positive”. For the same compound, the mutagenic call [2] was “active; positive”, the mutagenic call (Test System: AMES SALMONELLA TYPHIMURIUM, Strain/Indicator: TA7001, Metabolic Activation: NONE, Method: PREINCUBATION) was “active; positive” and the mutagenic call (Test System: AMES SALMONELLA TYPHIMURIUM, Strain/Indicator: TA7002, Metabolic Activation: NONE, Method: PREINCUBATION) was “active; positive”. The mutagenic call (Test System: AMES SALMONELLA TYPHIMURIUM, Strain/Indicator: TA7003, Metabolic Activation: NONE, Method: PREINCUBATION) was “active; positive”, the mutagenic call (Test System: AMES SALMONELLA TYPHIMURIUM, Strain/Indicator: TA7004, Metabolic Activation: NONE, Method: PREINCUBATION) was “active; positive” and the mutagenic call (Test System: AMES SALMONELLA TYPHIMURIUM, Strain/Indicator: TA7005, Metabolic Activation: NONE, Method: PREINCUBATION) was “active; positive”. The mutagenic call (Test System: AMES SALMONELLA TYPHIMURIUM, Strain/Indicator: TA7006, Metabolic Activation: NONE, Method: PREINCUBATION) was “active; positive”, the mutagenic call (Test System: AMES SALMONELLA TYPHIMURIUM, Strain/Indicator: YG1021, Metabolic Activation: NONE, Method: STANDARD PLATE) was “active; positive” and the mutagenic call (Test System: AMES SALMONELLA TYPHIMURIUM, Strain/Indicator: YG1024, Metabolic Activation: NONE, Method: STANDARD PLATE) was “active; positive”. For the same compound, the mutagenic call (Test System: AMES SALMONELLA TYPHIMURIUM, Strain/Indicator: YG1026, Metabolic Activation: NONE, Method: STANDARD PLATE) was “active; positive” and the mutagenic call (Test System: AMES SALMONELLA TYPHIMURIUM, Strain/Indicator: YG1029, Metabolic Activation: NONE, Method: STANDARD PLATE) was “active; positive”.

`OC[C@H]1O[C@@H](OC2[C@@H](CO)O[C@H](O)[C@H](O)[C@H]2O)[C@H](O)[C@@H](O)C1O[C@@H]1O[C@H](CO)[C@@H](O)[C@H](O)[C@H]1O` (stereo not given in full) was tested, and the mutagenic call (End Point: IN VIVO CHROMOSOMAL ABERRATIONS, Test System: BONE MARROW CELLS, Species: MOUSE, Strain/Sex: CD-1, MALE, Route: IP) was “inactive; negative” and the mutagenic call (End Point: IN VIVO CHROMOSOMAL ABERRATIONS, Test System: SPERMATOGONIAL CELLS, Species: MOUSE, Strain/Sex: CD-1, MALE, Route: IP) was “inactive; negative”.

With `CC(C)(C)S(=O)(=O)C[C@@H](Cc1ccccc1)C(=O)N[C@@H](Cc1cnc[nH]1)C(=O)N[C@@H](CC1CCCCC1)[C@@H](O)[C@@H](O)C1CC1` the mutagenic call (Test System: AMES SALMONELLA TYPHIMURIUM, Strain/Indicator: TA97, Metabolic Activation: NONE, Method: PREINCUBATION) was “inactive; negative”, the mutagenic call (Test System: AMES SALMONELLA TYPHIMURIUM, Strain/Indicator: TA97, Metabolic Activation: NONE, Method: STANDARD PLATE) was “inactive; negative” and the mutagenic call (Test System: AMES SALMONELLA TYPHIMURIUM, Strain/Indicator: TA97, Metabolic Activation: RAT, LIVER, S-9, PHENOBARBITAL AND BETA-NAPHTHOFLAVONE, Method: PREINCUBATION) was “inactive; negative”. The mutagenic call (Test System: AMES SALMONELLA TYPHIMURIUM, Strain/Indicator: TA97, Metabolic Activation: RAT, LIVER, S-9, PHENOBARBITAL AND BETA-NAPHTHOFLAVONE, Method: STANDARD PLATE) was “inactive; negative”, the mutagenic call (Test System: AMES SALMONELLA TYPHIMURIUM, Strain/Indicator: TA98, Metabolic Activation: NONE, Method: PREINCUBATION) was “inactive; negative” and the mutagenic call [1] was “inactive; negative”. For the same compound, the mutagenic call (Test System: AMES SALMONELLA TYPHIMURIUM, Strain/Indicator: TA98, Metabolic Activation: RAT, LIVER, S-9, PHENOBARBITAL AND BETA-NAPHTHOFLAVONE, Method: PREINCUBATION) was “inactive; negative”, the mutagenic call (Test System: AMES SALMONELLA TYPHIMURIUM, Strain/Indicator: TA98, Metabolic Activation: RAT, LIVER, S-9, PHENOBARBITAL AND BETA-NAPHTHOFLAVONE, Method: STANDARD PLATE) was “inactive; negative” and the mutagenic call (Test System: AMES SALMONELLA TYPHIMURIUM, Strain/Indicator: TA100, Metabolic Activation: NONE, Method: PREINCUBATION) was “inactive; negative”. For the same compound, the mutagenic call [2] was “inactive; negative”, the mutagenic call (Test System: AMES SALMONELLA TYPHIMURIUM, Strain/Indicator: TA100, Metabolic Activation: RAT, LIVER, S-9, PHENOBARBITAL AND BETA-NAPHTHOFLAVONE, Method: PREINCUBATION) was “inactive; negative” and the mutagenic call (Test System: AMES SALMONELLA TYPHIMURIUM, Strain/Indicator: TA100, Metabolic Activation: RAT, LIVER, S-9, PHENOBARBITAL AND BETA-NAPHTHOFLAVONE, Method: STANDARD PLATE) was “inactive; negative”. The mutagenic call (Test System: AMES SALMONELLA TYPHIMURIUM, Strain/Indicator: TA102, Metabolic Activation: NONE, Method: PREINCUBATION) was “inactive; negative”, the mutagenic call (Test System: AMES SALMONELLA TYPHIMURIUM, Strain/Indicator: TA102, Metabolic Activation: NONE, Method: STANDARD PLATE) was “inactive; negative” and the mutagenic call (Test System: AMES SALMONELLA TYPHIMURIUM, Strain/Indicator: TA102, Metabolic Activation: RAT, LIVER, S-9, PHENOBARBITAL AND BETA-NAPHTHOFLAVONE, Method: PREINCUBATION) was “inactive; negative”. For the same compound, the mutagenic call (Test System: AMES SALMONELLA TYPHIMURIUM, Strain/Indicator: TA102, Metabolic Activation: RAT, LIVER, S-9, PHENOBARBITAL AND BETA-NAPHTHOFLAVONE, Method: STANDARD PLATE) was “inactive; negative”, the mutagenic call (Test System: AMES SALMONELLA TYPHIMURIUM, Strain/Indicator: TA1535, Metabolic Activation: NONE, Method: PREINCUBATION) was “inactive; negative” and the mutagenic call (Test System: AMES SALMONELLA TYPHIMURIUM, Strain/Indicator: TA1535, Metabolic Activation: NONE, Method: STANDARD PLATE) was “inactive; negative”. For the same compound, the mutagenic call (Test System: AMES SALMONELLA TYPHIMURIUM, Strain/Indicator: TA1535, Metabolic Activation: RAT, LIVER, S-9, PHENOBARBITAL AND BETA-NAPHTHOFLAVONE, Method: PREINCUBATION) was “inactive; negative”, the mutagenic call (Test System: AMES SALMONELLA TYPHIMURIUM, Strain/Indicator: TA1535, Metabolic Activation: RAT, LIVER, S-9, PHENOBARBITAL AND BETA-NAPHTHOFLAVONE, Method: STANDARD PLATE) was “inactive; negative” and the mutagenic call (Test System: AMES SALMONELLA TYPHIMURIUM, Strain/Indicator: TA1537, Metabolic Activation: NONE, Method: PREINCUBATION) was “inactive; negative”. For the same compound, the mutagenic call (Test System: AMES SALMONELLA TYPHIMURIUM, Strain/Indicator: TA1537, Metabolic Activation: NONE, Method: STANDARD PLATE) was “inactive; negative”, the mutagenic call (Test System: AMES SALMONELLA TYPHIMURIUM, Strain/Indicator: TA1537, Metabolic Activation: RAT, LIVER, S-9, PHENOBARBITAL AND BETA-NAPHTHOFLAVONE, Method: PREINCUBATION) was “inactive; negative” and the mutagenic call (Test System: AMES SALMONELLA TYPHIMURIUM, Strain/Indicator: TA1537, Metabolic Activation: RAT, LIVER, S-9, PHENOBARBITAL AND BETA-NAPHTHOFLAVONE, Method: STANDARD PLATE) was “inactive; negative”. For the same compound, the mutagenic call (Test System: AMES SALMONELLA TYPHIMURIUM, Strain/Indicator: TA1538, Metabolic Activation: NONE, Method: PREINCUBATION) was “inactive; negative”, the mutagenic call (Test System: AMES SALMONELLA TYPHIMURIUM, Strain/Indicator: TA1538, Metabolic Activation: NONE, Method: STANDARD PLATE) was “inactive; negative” and the mutagenic call (Test System: AMES SALMONELLA TYPHIMURIUM, Strain/Indicator: TA1538, Metabolic Activation: RAT, LIVER, S-9, PHENOBARBITAL AND BETA-NAPHTHOFLAVONE, Method: PREINCUBATION) was “inactive; negative”. For the same compound, the mutagenic call (Test System: AMES SALMONELLA TYPHIMURIUM, Strain/Indicator: TA1538, Metabolic Activation: RAT, LIVER, S-9, PHENOBARBITAL AND BETA-NAPHTHOFLAVONE, Method: STANDARD PLATE) was “inactive; negative”.

For `CCCCCCCCCCCCCC(=O)ON(C(C)=O)c1ccc2c(c1)Cc1ccccc1-2`, the mutagenic call (Test System: UDS HUMAN FIBROBLASTS, Strain/Indicator: THY INCORP (NON-S-PHASE), Metabolic Activation: NONE, Method: AUTORADIOGRAPHY) was “active; positive”.
